Test results from US11076593B2, “Reperfusion with omega-3 glycerides promotes donor organ protection for transplantation” (The Trustees of Columbia University in the City of New York, priority 2013, dated 2021).

Tests used:
[1] = test system: isolated C57BL/6 mouse hearts; assay: Ex vivo I/R: release of injury markers (LDH, creatine kinase) into the perfusate
Excerpt: Evidence supporting the methods and products of the invention has been established in an ex vivo model using hearts rapidly removed from ketamine/xylazine anesthetized 12-14 weeks old C57BL/6 mice weighing between 25-30 g that were retrograde perfused in a non-recirculating mode, using an isovolumic perfusion system through the well-known Langendorf System (FIG. 1). In this system isolated mouse hearts were initially perfused with a perfusion buffer containing KREB's solution containing (in mM) the following: 118 NaCl, 4.7 KCl, 2.5 CaCl2, 1.2 MgCl2, 25 NaHCO3, 5 Glucose, 0.4 Palmitate, 0.4 BSA, and 70 mU/1 insulin. […]
After the induced ischemia, control hearts were reperfused using the same Kreb's buffer. […] TG fatty acid (FA) composition (by weight) of the emulsion used in experiments 1-9 was determined by gas liquid chromatography and was as follows for the n-3 emulsion: C14:0, 5.4%; C16:0, 14.8%; C16:1, 8.4%; C18:0, 2.8%; C18:1, 12.7%; C18:2 (n-6), 2.6%; C18:3 (n-3), 0.8%; C20:1, 1.2%; C20:4 (n-6), 1.9%; C20:5 (EPA, n-3), 18.3%; C22:1, 0.2%; C22:4, 0.6%; C22:5, 2.6%; and C22:6 ([…], n-3), 27.7. […]
Myocardial injury was assessed by measuring the release of lactate dehydrogenase (LDH) from the effluent in the ex vivo I/R system and from blood samples in the in vivo LAD system, using the commercially available enzymatic kits (Pointe Scientific, INC, MI USA) as published earlier.^1,2 […]

[2] = test system: p10 C57BL/6J neonatal mice, cerebral H/I; assay: Unilateral cerebral hypoxia-ischemia (H/I) in neonatal mice, TTC infarct volume at 24 hr; assay type: in vivo, mouse; conditions: pre-H/I protocol, two i.p. doses; 24 hr reperfusion
Excerpt: Three-day-old C57BL/6J neonatal mice of both genders were purchased from Jackson Laboratories (Bar Harbor, Me.) with their birth mother. The Rice-Vannucci model of H/I was used and modified to p10 neonatal mice.^5 Briefly, on postnatal day 10 H/I was induced by the ligation of the right common carotid artery, which was further cauterized and cut under isoflurane anesthesia. The investigator was blinded to the lipid emulsion treatment during the surgery and after the surgery. The entire surgical procedure was completed within 5 min for each mouse. Pups were then allowed to recover with their dams for 1.5 hr. Surrounding temperature during experiments was kept at 28° C. Mice were then exposed to systemic hypoxia for 15 min in a hypoxic chamber in a neonatal isolette (humidified 8% oxygen/nitrogen, Tech Air Inc., White Plains, N.Y.).^5 The ambient temperature inside the chamber during hypoxia was stabilized at 37±0.3° C. […]
After 24 hr of reperfusion, the animals were sacrificed by decapitation and brains were immediately harvested. […] Using Adobe Photoshop and NIH Image J imaging applications, planar areas of infarction on serial sections were summed to obtain the volume (mm^3) of infarcted tissue, which was divided by the total (infarcted+non-infarcted) volume of the hemisphere ipsilateral to carotid artery ligation, and expressed as a percentage of total volume. […]

Compound | LDH release compared to I/R control hearts ([1]; SB-216763 (3 μM) plus 0.3% n-3 TG emulsion) | LDH release (fold change) compared to I/R control ([1]; inhibitor alone, from baseline through ischemia and reperfusion, 10 μM LY-294002, 3 μM SB216763) | infarct volume compared to saline control [2]
Cn1cc(C2=C(c3ccc(Cl)cc3Cl)C(=O)NC2=O)c2ccccc21 [SB216763] | significantly inhibited LDH release | significantly inhibited LDH release | 
Cc1c(C)c2c(c(C)c1O)CC[C@@](C)(CCC[C@H](C)CCC[C@H](C)CCCC(C)C)O2 [alpha-tocopherol] |  |  | no significant difference
